Experimental data published in PMC9927415, “Tyrosine Kinase Inhibitors Display Potent Activity against Cryptosporidium parvum” (Microbiology Spectrum, 2022).

Columns and labels:
Test in all cases: KINOMEscan competitive binding, whole panel
panel of 203 kinases [1] = target: T1, panel of 203 kinases (Homo sapiens, UniProt Q13705); details: 10 µM, n=1; kinase ACVR2B; read-out: Percent inhibition ACVR2B
T1 construct: purchased DiscoverX (KINOMEscan)
Description: (§1) The kinases were expressed as fusions to T7 bacteriophage. This is a sensitive, competitive binding assay where test compounds were used to displace immobilized ATP-site binding probe ligands from kinases of interest. The amount of kinase that remained bound to the immobilized probe ligands on the solid support was quantified. Percentage inhibition data were was plotted on kinome trees using the web-based tool KinMap (http://www.kinhub.org/kinmap) ([60]).

panel of 203 kinases [2] = target: T2, panel of 203 kinases (Homo sapiens, UniProt Q7KZI7); details: 10 µM, n=1; kinase MARK2; read-out: Percent inhibition MARK2
T2 construct: purchased DiscoverX (KINOMEscan)
T2 sequence (Q7KZI7 whole entry): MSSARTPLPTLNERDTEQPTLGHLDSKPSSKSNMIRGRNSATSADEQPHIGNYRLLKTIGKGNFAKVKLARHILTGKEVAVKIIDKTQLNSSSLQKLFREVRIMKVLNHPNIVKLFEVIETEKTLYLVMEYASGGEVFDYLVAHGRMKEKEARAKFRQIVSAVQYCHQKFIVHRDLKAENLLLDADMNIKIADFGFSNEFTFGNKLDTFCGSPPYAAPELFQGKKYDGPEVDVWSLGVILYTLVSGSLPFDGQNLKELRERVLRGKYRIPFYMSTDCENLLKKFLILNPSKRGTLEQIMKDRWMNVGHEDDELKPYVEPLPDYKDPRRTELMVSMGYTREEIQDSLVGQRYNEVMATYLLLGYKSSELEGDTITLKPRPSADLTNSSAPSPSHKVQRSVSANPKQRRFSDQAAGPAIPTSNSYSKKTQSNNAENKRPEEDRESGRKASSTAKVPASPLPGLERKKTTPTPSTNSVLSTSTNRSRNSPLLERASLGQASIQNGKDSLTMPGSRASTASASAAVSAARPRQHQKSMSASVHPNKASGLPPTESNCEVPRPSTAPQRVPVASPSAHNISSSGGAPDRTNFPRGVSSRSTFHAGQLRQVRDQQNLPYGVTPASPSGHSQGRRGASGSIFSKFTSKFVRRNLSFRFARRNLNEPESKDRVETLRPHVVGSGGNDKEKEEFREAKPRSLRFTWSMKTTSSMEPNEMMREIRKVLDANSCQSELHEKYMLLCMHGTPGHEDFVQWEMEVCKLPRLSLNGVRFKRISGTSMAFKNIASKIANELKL
Description: as §1

panel of 203 kinases [3] = target: T3, panel of 203 kinases (Homo sapiens, UniProt P49761); details: 10 µM, n=1; kinase CLK3; read-out: Percent inhibition CLK3
T3 construct: purchased DiscoverX (KINOMEscan)
T3 sequence (P49761 whole entry): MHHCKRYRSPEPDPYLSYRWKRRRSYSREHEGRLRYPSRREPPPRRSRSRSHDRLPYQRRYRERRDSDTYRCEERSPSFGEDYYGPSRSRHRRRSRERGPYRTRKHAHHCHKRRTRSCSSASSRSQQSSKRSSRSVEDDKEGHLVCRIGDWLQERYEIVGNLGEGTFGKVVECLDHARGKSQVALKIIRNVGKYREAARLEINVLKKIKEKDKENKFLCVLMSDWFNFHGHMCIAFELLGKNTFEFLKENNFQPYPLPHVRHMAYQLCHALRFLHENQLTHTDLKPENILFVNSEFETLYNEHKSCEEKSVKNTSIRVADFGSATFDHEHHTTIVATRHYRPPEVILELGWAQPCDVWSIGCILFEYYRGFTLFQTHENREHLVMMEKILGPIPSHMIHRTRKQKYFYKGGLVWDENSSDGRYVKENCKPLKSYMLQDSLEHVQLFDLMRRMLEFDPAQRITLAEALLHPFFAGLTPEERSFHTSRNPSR
Description: as §1

panel of 203 kinases [4] = target: T4, panel of 203 kinases (Homo sapiens, UniProt Q09013); details: 10 µM, n=1; kinase DMPK; read-out: Percent inhibition DMPK
T4 construct: purchased DiscoverX (KINOMEscan)
T4 sequence (Q09013 1-629): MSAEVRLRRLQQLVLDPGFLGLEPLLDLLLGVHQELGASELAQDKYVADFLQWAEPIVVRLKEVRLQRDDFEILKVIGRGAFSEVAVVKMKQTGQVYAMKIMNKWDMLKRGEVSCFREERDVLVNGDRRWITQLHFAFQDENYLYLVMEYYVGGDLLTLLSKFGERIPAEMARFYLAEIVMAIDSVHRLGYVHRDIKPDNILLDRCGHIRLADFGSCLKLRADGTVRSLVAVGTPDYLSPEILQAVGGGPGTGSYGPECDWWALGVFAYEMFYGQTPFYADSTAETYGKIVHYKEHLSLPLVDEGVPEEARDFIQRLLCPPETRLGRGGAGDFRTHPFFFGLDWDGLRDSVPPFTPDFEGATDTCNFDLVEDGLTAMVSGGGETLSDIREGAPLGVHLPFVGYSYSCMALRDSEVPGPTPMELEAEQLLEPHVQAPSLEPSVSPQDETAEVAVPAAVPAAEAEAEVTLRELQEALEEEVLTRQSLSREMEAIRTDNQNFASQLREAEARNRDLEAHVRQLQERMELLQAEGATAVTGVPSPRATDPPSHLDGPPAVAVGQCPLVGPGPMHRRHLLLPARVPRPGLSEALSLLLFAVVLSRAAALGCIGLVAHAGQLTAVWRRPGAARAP
Description: as §1

panel of 203 kinases [5] = target: T5, panel of 203 kinases (Homo sapiens, UniProt P42684); details: 10 µM, n=1; kinase ABL2; read-out: Percent inhibition ABL2
T5 construct: purchased DiscoverX (KINOMEscan)
T5 sequence (P42684 whole entry): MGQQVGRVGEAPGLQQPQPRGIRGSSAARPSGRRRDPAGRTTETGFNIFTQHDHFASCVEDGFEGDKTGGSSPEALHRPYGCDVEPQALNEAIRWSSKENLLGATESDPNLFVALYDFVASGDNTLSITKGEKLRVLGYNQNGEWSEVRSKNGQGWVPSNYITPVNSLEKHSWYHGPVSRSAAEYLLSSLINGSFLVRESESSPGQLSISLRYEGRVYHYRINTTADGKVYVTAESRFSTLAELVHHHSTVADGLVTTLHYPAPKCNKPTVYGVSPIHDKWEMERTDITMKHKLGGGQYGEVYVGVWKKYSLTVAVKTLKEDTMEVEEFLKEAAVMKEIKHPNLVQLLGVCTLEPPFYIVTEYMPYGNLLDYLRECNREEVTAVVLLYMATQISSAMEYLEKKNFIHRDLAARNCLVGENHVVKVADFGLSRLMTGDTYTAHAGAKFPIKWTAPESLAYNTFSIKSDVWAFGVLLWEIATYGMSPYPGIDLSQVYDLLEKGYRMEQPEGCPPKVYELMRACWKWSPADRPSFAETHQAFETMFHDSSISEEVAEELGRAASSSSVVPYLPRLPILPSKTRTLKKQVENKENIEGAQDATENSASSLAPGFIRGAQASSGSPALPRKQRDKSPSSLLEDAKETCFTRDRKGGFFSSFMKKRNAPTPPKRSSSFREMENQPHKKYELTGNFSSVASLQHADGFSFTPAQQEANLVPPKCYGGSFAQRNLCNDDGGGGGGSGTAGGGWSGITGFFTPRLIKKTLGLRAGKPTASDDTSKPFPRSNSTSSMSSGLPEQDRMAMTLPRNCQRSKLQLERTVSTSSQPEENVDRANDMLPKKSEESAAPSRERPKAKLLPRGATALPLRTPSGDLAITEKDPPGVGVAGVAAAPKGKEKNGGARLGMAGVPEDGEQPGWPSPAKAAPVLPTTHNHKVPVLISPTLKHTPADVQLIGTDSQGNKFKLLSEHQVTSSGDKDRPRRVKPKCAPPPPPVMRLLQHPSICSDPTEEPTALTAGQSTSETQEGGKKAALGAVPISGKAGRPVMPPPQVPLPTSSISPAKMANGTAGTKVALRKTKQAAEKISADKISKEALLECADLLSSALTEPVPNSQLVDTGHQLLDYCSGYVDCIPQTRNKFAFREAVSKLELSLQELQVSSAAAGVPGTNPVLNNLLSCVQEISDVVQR
Description: as §1

panel of 203 kinases [6] = target: T6, panel of 203 kinases (Homo sapiens, UniProt P21802); details: 10 µM, n=1; kinase FGFR2; read-out: Percent inhibition FGFR2
T6 construct: purchased DiscoverX (KINOMEscan)
T6 sequence (P21802 22-821): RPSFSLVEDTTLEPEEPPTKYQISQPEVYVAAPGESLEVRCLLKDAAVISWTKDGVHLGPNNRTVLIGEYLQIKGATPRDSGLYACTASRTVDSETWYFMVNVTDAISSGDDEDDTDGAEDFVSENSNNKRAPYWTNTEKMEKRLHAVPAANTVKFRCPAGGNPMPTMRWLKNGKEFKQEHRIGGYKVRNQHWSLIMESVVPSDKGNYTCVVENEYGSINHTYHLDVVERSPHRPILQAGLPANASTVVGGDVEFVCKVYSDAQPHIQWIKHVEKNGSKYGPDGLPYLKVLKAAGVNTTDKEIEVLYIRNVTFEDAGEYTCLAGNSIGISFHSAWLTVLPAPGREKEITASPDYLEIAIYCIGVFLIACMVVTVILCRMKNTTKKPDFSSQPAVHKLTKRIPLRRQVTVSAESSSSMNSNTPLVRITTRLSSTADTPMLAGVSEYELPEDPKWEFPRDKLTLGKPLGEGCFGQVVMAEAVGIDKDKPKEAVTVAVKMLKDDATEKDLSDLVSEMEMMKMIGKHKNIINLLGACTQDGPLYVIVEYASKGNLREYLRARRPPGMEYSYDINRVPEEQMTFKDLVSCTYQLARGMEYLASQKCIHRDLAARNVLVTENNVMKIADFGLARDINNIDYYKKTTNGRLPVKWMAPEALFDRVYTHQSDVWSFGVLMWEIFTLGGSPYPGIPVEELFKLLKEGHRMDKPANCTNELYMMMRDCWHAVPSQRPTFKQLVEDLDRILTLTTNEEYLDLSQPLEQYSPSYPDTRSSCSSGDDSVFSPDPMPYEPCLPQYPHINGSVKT
Description: as §1

panel of 203 kinases [7] = target: T7, panel of 203 kinases (Homo sapiens, UniProt Q9Y243); details: 10 µM, n=1; kinase AKT3; read-out: Percent inhibition AKT3
T7 construct: purchased DiscoverX (KINOMEscan)
T7 sequence (Q9Y243 whole entry): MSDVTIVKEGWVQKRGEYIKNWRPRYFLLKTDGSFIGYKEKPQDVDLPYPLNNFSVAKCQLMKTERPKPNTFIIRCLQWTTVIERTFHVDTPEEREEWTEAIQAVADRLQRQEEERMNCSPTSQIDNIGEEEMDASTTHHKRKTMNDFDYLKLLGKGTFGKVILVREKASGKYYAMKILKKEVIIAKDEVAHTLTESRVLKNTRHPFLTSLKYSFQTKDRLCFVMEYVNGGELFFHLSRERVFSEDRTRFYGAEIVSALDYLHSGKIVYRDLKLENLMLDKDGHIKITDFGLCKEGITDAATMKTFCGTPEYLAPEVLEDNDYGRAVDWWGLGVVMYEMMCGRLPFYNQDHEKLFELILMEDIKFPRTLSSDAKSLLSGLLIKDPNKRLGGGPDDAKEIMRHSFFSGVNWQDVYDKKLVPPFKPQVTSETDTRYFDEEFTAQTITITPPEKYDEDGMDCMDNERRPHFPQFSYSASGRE
Description: as §1

panel of 203 kinases [8] = target: T8, panel of 203 kinases (Homo sapiens, UniProt O94768); details: 10 µM, n=1; kinase DRAK2; read-out: Percent inhibition DRAK2
T8 construct: purchased DiscoverX (KINOMEscan)
T8 sequence (O94768 1-372): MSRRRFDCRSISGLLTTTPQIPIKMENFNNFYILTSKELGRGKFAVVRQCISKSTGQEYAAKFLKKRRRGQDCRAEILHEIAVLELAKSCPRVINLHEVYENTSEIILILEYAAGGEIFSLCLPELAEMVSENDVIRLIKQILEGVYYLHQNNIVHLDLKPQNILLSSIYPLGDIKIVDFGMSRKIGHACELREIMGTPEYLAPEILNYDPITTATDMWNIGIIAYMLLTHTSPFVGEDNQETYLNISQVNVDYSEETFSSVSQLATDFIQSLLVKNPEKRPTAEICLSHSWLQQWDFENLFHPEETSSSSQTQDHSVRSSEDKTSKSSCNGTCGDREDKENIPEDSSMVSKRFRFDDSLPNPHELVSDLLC
Description: as §1

panel of 203 kinases [9] = target: T9, panel of 203 kinases (Homo sapiens, UniProt Q16539); details: 10 µM, n=1; kinase p38-alpha; read-out: Percent inhibition p38-alpha
T9 construct: purchased DiscoverX (KINOMEscan)
T9 sequence (Q16539 whole entry): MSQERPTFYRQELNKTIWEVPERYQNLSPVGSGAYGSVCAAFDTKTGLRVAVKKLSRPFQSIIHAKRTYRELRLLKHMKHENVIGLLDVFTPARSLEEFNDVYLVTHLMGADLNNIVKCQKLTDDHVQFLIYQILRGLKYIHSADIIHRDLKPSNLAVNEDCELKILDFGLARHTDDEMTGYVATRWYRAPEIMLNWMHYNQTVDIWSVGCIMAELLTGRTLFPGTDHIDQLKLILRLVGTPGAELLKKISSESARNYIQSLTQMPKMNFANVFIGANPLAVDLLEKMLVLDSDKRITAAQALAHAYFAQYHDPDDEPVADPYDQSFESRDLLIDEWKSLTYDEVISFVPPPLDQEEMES
Description: as §1

panel of 203 kinases [10] = target: T10, panel of 203 kinases (Homo sapiens, UniProt Q96GD4); details: 10 µM, n=1; kinase AURKB; read-out: Percent inhibition AURKB
T10 construct: purchased DiscoverX (KINOMEscan)
T10 sequence (Q96GD4 whole entry): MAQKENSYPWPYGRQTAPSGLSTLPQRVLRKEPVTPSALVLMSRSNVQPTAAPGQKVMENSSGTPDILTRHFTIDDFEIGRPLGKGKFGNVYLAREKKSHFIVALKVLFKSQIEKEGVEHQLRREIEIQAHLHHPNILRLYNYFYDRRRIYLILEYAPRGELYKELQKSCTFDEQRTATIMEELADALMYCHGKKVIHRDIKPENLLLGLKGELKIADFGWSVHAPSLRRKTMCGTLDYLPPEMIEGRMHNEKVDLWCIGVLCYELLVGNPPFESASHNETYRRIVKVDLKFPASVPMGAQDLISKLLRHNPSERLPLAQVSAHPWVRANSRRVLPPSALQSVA
Description: as §1

panel of 203 kinases [11] = target: T11, panel of 203 kinases (Homo sapiens, UniProt P51813); details: 10 µM, n=1; kinase BMX; read-out: Percent inhibition BMX
T11 construct: purchased DiscoverX (KINOMEscan)
T11 sequence (P51813 1-675): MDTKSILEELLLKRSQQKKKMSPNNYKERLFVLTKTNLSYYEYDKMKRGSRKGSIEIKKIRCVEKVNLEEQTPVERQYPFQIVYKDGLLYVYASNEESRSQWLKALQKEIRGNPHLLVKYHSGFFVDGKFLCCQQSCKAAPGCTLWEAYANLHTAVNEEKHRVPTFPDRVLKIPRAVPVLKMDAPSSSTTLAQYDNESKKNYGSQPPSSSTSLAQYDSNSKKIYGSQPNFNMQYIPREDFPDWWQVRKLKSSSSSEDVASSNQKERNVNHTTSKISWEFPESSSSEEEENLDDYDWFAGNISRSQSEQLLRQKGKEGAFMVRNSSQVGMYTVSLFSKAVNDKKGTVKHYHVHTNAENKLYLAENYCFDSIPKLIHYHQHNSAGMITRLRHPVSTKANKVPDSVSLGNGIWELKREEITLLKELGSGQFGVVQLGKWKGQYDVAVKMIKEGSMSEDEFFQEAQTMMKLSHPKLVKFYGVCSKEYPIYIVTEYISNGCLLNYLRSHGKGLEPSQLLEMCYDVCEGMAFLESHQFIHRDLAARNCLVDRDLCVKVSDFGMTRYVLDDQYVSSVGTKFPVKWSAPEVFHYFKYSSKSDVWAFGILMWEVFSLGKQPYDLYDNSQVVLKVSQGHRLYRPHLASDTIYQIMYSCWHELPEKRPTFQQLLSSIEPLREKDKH
Description: as §1

T1 sequence (Q13705 19-512): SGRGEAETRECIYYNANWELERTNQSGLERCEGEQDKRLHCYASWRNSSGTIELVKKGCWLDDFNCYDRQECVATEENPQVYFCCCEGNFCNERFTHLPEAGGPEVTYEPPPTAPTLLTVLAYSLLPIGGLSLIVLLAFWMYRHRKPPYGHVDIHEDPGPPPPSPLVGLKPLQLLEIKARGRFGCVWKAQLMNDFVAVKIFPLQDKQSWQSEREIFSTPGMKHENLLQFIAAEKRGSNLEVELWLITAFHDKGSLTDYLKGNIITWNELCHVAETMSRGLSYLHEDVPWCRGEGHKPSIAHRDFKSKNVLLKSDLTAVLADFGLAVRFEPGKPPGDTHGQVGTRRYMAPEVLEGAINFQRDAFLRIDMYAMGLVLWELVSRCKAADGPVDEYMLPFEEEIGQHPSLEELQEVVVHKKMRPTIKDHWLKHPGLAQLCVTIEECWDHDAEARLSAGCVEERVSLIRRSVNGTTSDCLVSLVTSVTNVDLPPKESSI

SMILES	inhibition at 10 µM (panel of 203 kinases [1])	inhibition at 10 µM (panel of 203 kinases [2])	inhibition at 10 µM (panel of 203 kinases [3])	inhibition at 10 µM (panel of 203 kinases [4])	inhibition at 10 µM (panel of 203 kinases [5])	inhibition at 10 µM (panel of 203 kinases [6])	inhibition at 10 µM (panel of 203 kinases [7])	inhibition at 10 µM (panel of 203 kinases [8])	inhibition at 10 µM (panel of 203 kinases [9])	inhibition at 10 µM (panel of 203 kinases [10])	inhibition at 10 µM (panel of 203 kinases [11])
Cc1ccc(O)cc1Nc1ccnc(Nc2cccc(C(N)=O)c2)n1 [Compound 3]	100%	0%	0%	0%	100%	0%	0%	0%	77.8%	82.8%	–
Cc1ccc(O)cc1N(C)c1ccnc(Nc2cccc(S(N)(=O)=O)c2)n1 [Compound 4]	100%	66%	70.5%	0%	100%	0%	0%	0%	99.1%	79.5%	100%
CN1CCN(c2ccc(Nc3nccc(-c4cnn5ncccc45)n3)cc2C#N)CC1 [Compound 1]	0%	92%	98.7%	0%	95%	70.1%	0%	82.4%	0%	88.5%	0%
Clc1ccc(Nc2ncc(-c3ccccc3)s2)cc1 [Compound 10]	0%	0%	0%	0%	0%	0%	0%	0%	0%	0%	0%
Nc1ncc2c(-c3ccncc3)c[nH]c2n1 [Compound 11]	65.7%	0%	84.9%	0%	0%	0%	0%	89.7%	0%	65.6%	0%
Fc1cccc(COc2ccc(Nc3ncnc4c3CN(CCN3CCOCC3)CC4)cc2Cl)c1 [Compound 6]	0%	0%	0%	0%	0%	0%	0%	0%	0%	0%	0%
COc1ccc(Nc2nccc(-c3cnn4ncccc34)n2)cc1 [Compound 2]	80.3%	0%	94.8%	0%	92.5%	0%	0%	88.6%	0%	93.3%	0%
C[C@@H](Oc1cc(-c2cnc3ccccn23)sc1C(N)=O)c1ccccc1Cl [Compound 8]	0%	0%	0%	0%	0%	0%	0%	0%	0%	87.3%	0%
COc1cc(Nc2nccc(-c3sc(N)nc3-c3cccc(NC(=O)c4c(F)cccc4F)c3)n2)cc(OC)c1OC [Compound 7]	97.5%	73.7%	0%	87.5%	100%	100%	0%	0%	98.5%	100%	100%
c1ccc(COc2cccc(-c3ccnc4[nH]ccc34)c2)cc1 [Compound 9]	0%	0%	0%	0%	0%	0%	0%	0%	0%	0%	0%
